Here are results for 20 compounds from patent US10562864B2, “Chemical modulators of immune checkpoints and therapeutic use” (Duke University, priority 2015, dated 2020).

Entries after “also recorded” stand apart in the source; their conditions may differ.

Assay [1] has as its target T1, PD1-GFP (Homo sapiens, UniProt Q15116).
T1 construct: expressed in transfected cells; host or cells: U2OS
In words: Internalization assay (PD1-GFP), confocal imaging of PD1-GFP stable U2OS cells. Set-up: Internalized PD1-GFP punctate; 6 hr (10 μM): key to the marks not given beside the values. It counts as cell-based. The settings on record: 37° C. On the procedure:
U2OS cells were transfected with PD1-GFP and stable receptor-expressing cells were selected using 0.5 mg/ml Geneticin in the culture medium. […] The plates were incubated overnight at 37° C. in 5% CO2. The following day, chemical compounds (10 mM in DMSO) were diluted 1:200 in culture medium, 6.25 μL of which was then added to each well of cells to produce a 1:1000 dilution overall and final compound concentration of 10 μM per well. The cells were incubated with compound for 6 h at 37° C. prior to fixation in PBS containing 0.5% paraformaldehyde for 30 min at room temperature. The wells were then washed with PBS three times and stored at 4° C. The cells were imaged using a Zeiss LSM-510 confocal microscope.

Another assay relates to PD-1. The assay is described as follows: Western blot analysis of PD-1 protein level in 4T1 cells stably expressing PD-1. The class given is cell-based, murine. Set-up: key to Decrease in PD1 protein level by western blot at 24 h at 5 μM: † 3+ Scale with + least and +++ most; † 3+ Scale with + least and +++ most; † 3+ Scale with + least and +++ most; key to Decrease in PD1 protein level by western blot at 4 days at 3 μM: ‡ 3+ Scale with + least and +++ most; ‡ 3+ Scale with + least and +++ most; ‡ 3+ Scale with + least and +++ most. The conditions noted are these: for Decrease in PD1 protein level by western blot at 24 h at 5 μM / Decrease in PD1 protein level by western blot at 4 days at 3 μM / PD-1 protein levels by western blot after 4 days: 4T1-PD1 cells; for PD-1 protein levels by western blot at 24 hours: 4T1 cells stably expressing PD-1, FIG. 9, 10, 12; for PD-1 protein levels by western blot after 4 days: FIG. 13. On the procedure:
Murine breast cancer cells were grown in DMEM medium supplemented with 10% FBS and penicillin and streptomycin antibiotics at 37° C. in 5% CO2.
4T1 Murine breast cancer cells stably expressing PD1 were seeded in 12-well plates (30 k cells/well) and incubated overnight. […] Cells were lysed with SDS sample buffer and lysates were subjected to western blot analysis
4T1-PD1 cells were seeded in 12-well plates (100 k cells/well) overnight. On the next day, compounds were added and the cells incubated for 4 days. The cells were then lysed in SDS sample buffer and lysates were subjected to western blot analysis

The subject of a further assay is phospho-Erk1/2. The assay is described as follows: Western blot analysis of phospho-Erk1/2 levels in 4T1-PD1 cells. It counts as cell-based, murine. The conditions noted are these: 24 hours, FIG. 11, 12. The protocol: 4T1-PD1 cells (30K cells/per well) were seeded in 12-well plates overnight. On the following day, the compounds were added and the cells were incubated for 24 hours. The cells were then lysed in SDS sample buffer and analyzed by western blots.
4T1-PD1 cells (30K cells/per well) were seeded in 12-well plates overnight. On the following day, the compounds were added and the cells were incubated for 24 hours. The cells were then lysed in SDS sample buffer and analyzed by western blot.
4T1 Murine breast cancer cells stably expressing PD1 were seeded in 12-well plates (30 k cells/well) and incubated overnight. On the next day, compounds were added to produce the final concentration desired and the cells were incubated for […]. Cells were lysed with SDS sample buffer and lysates were subjected to western blot analysis

The next assay deals with T2, PDL1-GFP (Homo sapiens, UniProt Q9NZQ7).
T2 construct: expressed in transfected cells; host or cells: U2OS
T2 sequence (Q9NZQ7 19-290): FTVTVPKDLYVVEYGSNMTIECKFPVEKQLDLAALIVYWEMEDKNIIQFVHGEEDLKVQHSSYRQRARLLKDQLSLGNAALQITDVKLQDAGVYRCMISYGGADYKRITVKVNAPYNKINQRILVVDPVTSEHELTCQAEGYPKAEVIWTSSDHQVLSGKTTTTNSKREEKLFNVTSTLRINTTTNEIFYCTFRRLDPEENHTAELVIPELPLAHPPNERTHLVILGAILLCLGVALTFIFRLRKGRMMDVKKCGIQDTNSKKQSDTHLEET
In words: Confocal imaging of PDL1-GFP stable U2OS cells. The class given is cell-based. The conditions noted are these: 10 μM, 6 h, 37° C., FIG. 2.

In assay [2] the target is T1, PD1-GFP. In words: Internalization assay (PD1-GFP), confocal imaging of PD1-GFP stable U2OS cells. It counts as cell-based. The settings on record: 0.25 μM to 10 μM, 6 h, see FIG. 6/7.
Another assay deals with T3, CTLA4-GFP (Homo sapiens, UniProt P16410).
T3 construct: expressed in transfected cells; host or cells: U2OS
T3 sequence (P16410 36-223): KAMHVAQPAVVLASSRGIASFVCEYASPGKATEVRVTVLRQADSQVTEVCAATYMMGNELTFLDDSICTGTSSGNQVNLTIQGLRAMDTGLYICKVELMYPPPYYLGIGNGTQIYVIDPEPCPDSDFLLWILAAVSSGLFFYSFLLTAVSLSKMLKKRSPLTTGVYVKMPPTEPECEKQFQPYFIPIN
In words: CTLA4-GFP internalization, confocal imaging of CTLA4-GFP stable U2OS cells. It counts as cell-based. Details: key to Internalized CTLA4-GFP punctate; 6 hr (10 μM): **4+ Scale with + least and ++++ most; **4+ Scale with + least and ++++ most; **4+ Scale with + least and ++++ most; **4+ Scale with + least and ++++ most.

T1 sequence (Q15116 25-288): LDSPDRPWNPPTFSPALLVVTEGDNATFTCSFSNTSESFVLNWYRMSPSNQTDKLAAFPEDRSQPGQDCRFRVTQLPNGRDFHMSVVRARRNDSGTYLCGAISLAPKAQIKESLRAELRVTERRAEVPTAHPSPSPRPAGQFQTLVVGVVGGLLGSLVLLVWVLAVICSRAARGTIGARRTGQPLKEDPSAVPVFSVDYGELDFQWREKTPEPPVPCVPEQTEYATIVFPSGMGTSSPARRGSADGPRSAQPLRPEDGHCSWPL

On to `O=C(Nc1ncc([N+](=O)[O-])s1)c1ccccc1O` [Compound 11], for which the “Internalized PD1-GFP punctate; 6 hr (10 μM)” value (shortened to “Internalized PD1-GFP punctate”) on PD1-GFP [1] is “++”.

In the case of `O=C(Nc1ccc(C(F)(F)F)cc1)c1cc(Cl)cc2[nH]c(C(F)(F)F)nc12` [Compound 9, 6-Chloro-2-(trifluoromethyl)-N-(4-(trifluoromethyl)phenyl)-1H-benzo[d]imidazole-4-carboxamide], the “Internalized PD1-GFP punctate” value at PD1-GFP [1] is listed as “++++”.

With `CC[C@@H](C(=O)[C@@H](C)[C@@H](O)[C@H](C)CCc1ccc(C)c(O)c1C(=O)O)[C@H]1O[C@](CC)([C@H]2CC[C@](O)(CC)[C@H](C)O2)C[C@@H]1C` [Compound 14, lasalocid], in the assay with PD-1, the “Decrease in PD1 protein level by western blot at 24 h at 5 μM” value (from here on “Decrease in PD1 protein level … at 5 μM”) is given as “++” and the “PD-1 protein levels by western blot at 24 hours” value was “lower PD-1 protein levels”. The “Internalized PD1-GFP punctate” value on PD1-GFP [1] is given as “++++”. Also, the “phospho-Erk1/2 levels by western blot” value with phospho-Erk1/2 is “lower phospho-Erk1/2 levels”.

Turning to `O=[N+]([O-])c1ccc2[nH]c(-c3cc(Cl)ccc3O)nc2c1` [Compound 2, 4-Chloro-2-(5-nitro-1H-benzo[d]imidazol-2-yl)phenol], in the assay on PD-1, the “Decrease in PD1 protein level by western blot at 4 days at 3 μM” value (shortened to “Decrease in PD1 protein level … at 3 μM”) is on record as “+++”; the “Decrease in PD1 protein level … at 5 μM” value is on record as “++”; the “PD-1 protein levels by western blot at 24 hours” value was “lower PD-1 and phopho-Erk1/2 protein levels”; the “PD-1 protein levels by western blot after 4 days” value was “lower PD-1 protein levels”. Besides, the “Internalized PD1-GFP punctate” value on PD1-GFP [1] is recorded as “++++”. The “phospho-Erk1/2 levels by western blot” value in the assay with phospho-Erk1/2 is “lower PD-1 and phopho-Erk1/2 protein levels”.

Turning to `CCN(CC)CCCC(C)Nc1c2ccc(Cl)cc2nc2ccc(OC)cc12` (centres unmarked) [Compound 16], the “Internalized PD1-GFP punctate” value on PD1-GFP [1] is “+++”.

As to `Cc1cc(/C=C/c2ccc3cc(N(C)C)ccc3[n+]2C)c(C)n1-c1ccccc1` [Compound 18], in the assay with PD-1, the “Decrease in PD1 protein level … at 3 μM” value is given as “+++”. In addition, the “Internalized PD1-GFP punctate” value at PD1-GFP [1] is recorded as “++++”.

Turning to `O=C(Nc1ccc([N+](=O)[O-])cc1Cl)c1cc(Cl)ccc1O` [Compound 10, niclosamide], on PDL1-GFP, the “PDL1-GFP vesicles in confocal images” value is reported as “aggregated PDL1-GFP vesicles”. Moreover, the EC50 (in general, the concentration at which the effect is half-maximal) on PD1-GFP [2] is 3 µM. In the assay on PD-1, the “Decrease in PD1 protein level … at 5 μM” value is “+++” and the “PD-1 protein levels by western blot at 24 hours” value is reported as “decreases PD-1 protein levels; also recorded: lower PD-1 protein levels”. Besides, the “PD-1 protein levels by western blot at 6 hours” value in the assay on PD-1 (6 hrs, 4T1 cells stably expressing PD-1, FIG. 8) is on record as “decreases PD-1 protein levels”. Also, the “CTLA4-GFP vesicles in confocal images” value on CTLA4-GFP (10 μM, 6 h, 37° C., FIG. 3) was “aggregated CTLA4-GFP vesicles”. For the same compound, the “Internalized CTLA4-GFP punctate; 6 hr (10 μM)” value on CTLA4-GFP (6 hr) is given as “+++”. On PD1-GFP [1] (10 μM, 6 h, FIG. 1), the “PD1-GFP internalization in confocal images” value was “internalized PD1-GFP vesicles”. The “Internalized PD1-GFP punctate” value at PD1-GFP [1] is “++++”. In the assay with phospho-Erk1/2, the “phospho-Erk1/2 levels by western blot” value was “lower phospho-Erk1/2 levels”.

`CCN(CC)CCCC(C)Nc1ccnc2cc(Cl)ccc12` (centres unmarked) [Compound 19]: on PD1-GFP [1], the “Internalized PD1-GFP punctate” value is reported as “+++”.

Turning to `CCCCc1oc2ccccc2c1C(=O)c1cc(I)c(OCCN(CC)CC)c(I)c1` [amiodarone], the “PD-1 protein levels by western blot after 4 days” value in the assay on PD-1 is “lower PD-1 protein levels”.

`CCCCc1oc2ccccc2c1C(=O)c1cc(I)c(OCCN(CC)CC)c(I)c1` [Compound 13]: the “Decrease in PD1 protein level … at 3 μM” value with PD-1 is “++”. Besides, the “Internalized PD1-GFP punctate” value on PD1-GFP [1] is reported as “+++”.

Take `O=[N+]([O-])c1ccc(-c2nnc(-c3cc(Cl)ccc3O)[nH]2)cc1` [Compound 1, 4-Chloro-2-(5-(4-nitrophenyl)-4H-1,2,4-triazol-3-yl)phenol]: the “Internalized PD1-GFP punctate” value on PD1-GFP [1] was “++++”.

On to `Cc1ccc(S(=O)(=O)Nc2ccc(Br)cc2C(=O)Nc2ccc(C(F)(F)F)cc2)cc1` [Compound 8, 5-Bromo-2-((4-methylphenyl)sulfonamido)-N-(4-(trifluoromethyl)phenyl)benzamide], for which, at PD1-GFP [1], the “Internalized PD1-GFP punctate” value was “++++”.

As for `COc1ccc2cc1Oc1ccc(cc1)C[C@H]1c3cc(c(OC)cc3CCN1C)Oc1c(OC)c(OC)cc3c1[C@H](C2)N(C)CC3` [Compound 17], the “Decrease in PD1 protein level … at 3 μM” value in the assay on PD-1 was “++”. Also, at PD1-GFP [1], the “Internalized PD1-GFP punctate” value is given as “+++”.

`CCCCCCCC(=O)Oc1ccc(Cl)cc1C(=O)Nc1ccc([N+](=O)[O-])cc1Cl` [Compound 7, 4-Chloro-2-((2-chloro-4-nitrophenyl)carbamoyl)phenyl octanoate] returned an EC50 at PD1-GFP [2] of 3 µM. Besides, in the assay with PD-1, the “Decrease in PD1 protein level … at 5 μM” value was “++” and the “PD-1 protein levels by western blot at 24 hours” value is on record as “lower PD-1 protein levels”. Further, the “Internalized PD1-GFP punctate” value at PD1-GFP [1] was “++++”.

For the compound `CC(NCCC(c1ccccc1)c1ccccc1)c1ccccc1` (centres unmarked) [Compound 15], on PD1-GFP [1], the “Internalized PD1-GFP punctate” value was “++”.

Take `CC(=O)Oc1ccccc1C(=O)Nc1ncc([N+](=O)[O-])s1` [Compound 12, nitazoxanide]: in the assay with PD-1, the “Decrease in PD1 protein level … at 5 μM” value is on record as “+”; the “PD-1 protein levels by western blot at 24 hours” value is “lower PD-1 and phopho-Erk1/2 protein levels”. The “Internalized PD1-GFP punctate” value on PD1-GFP [1] was “++”. Further, the “phospho-Erk1/2 levels by western blot” value with phospho-Erk1/2 is “lower PD-1 and phopho-Erk1/2 protein levels”.

As for `O=[N+]([O-])c1ccc2[nH]c(-c3cc(F)ccc3O)nc2c1` [Compound 3, 4-fluoro-2-(5-nitro-1H-benzo[d]imidazol-2-yl)phenol], in the assay on PD-1, the “Decrease in PD1 protein level … at 3 μM” value was “+++”; the “Decrease in PD1 protein level … at 5 μM” value is “++”; the “PD-1 protein levels by western blot at 24 hours” value is “lower PD-1 and phopho-Erk1/2 protein levels”; the “PD-1 protein levels by western blot after 4 days” value was “lower PD-1 protein levels”. Besides, in the assay on phospho-Erk1/2, the “phospho-Erk1/2 levels by western blot” value is “lower PD-1 and phopho-Erk1/2 protein levels”.

As to `O=C(Nc1ccc(C(F)(F)F)cc1Cl)c1cc(Cl)ccc1O` [Compound 5, 5-chloro-N-(2-chloro-4-(trifluoromethyl)phenyl)-2-hydroxybenzamide], the “Internalized PD1-GFP punctate” value at PD1-GFP [1] is on record as “++++”.

For `O=C(Nc1cc(Cl)cc(Cl)c1)c1cc(Cl)ccc1O` [Compound 6, 5-chloro-N-(3,5-dichlorophenyl)-2-hydroxybenzamide], on PD1-GFP [1], the “Internalized PD1-GFP punctate” value is “++++”.

As for `O=S(=O)(Nc1ccc(C(F)(F)F)cc1Cl)c1cc(Cl)ccc1O` [Compound 4, 5-Chloro-N-(2-chloro-4-(trifluoromethyl)phenyl)-2-hydroxybenzenesulfonamide], the “Internalized PD1-GFP punctate” value at PD1-GFP [1] is “++”.
